Experiment [1] deals with muscarinic receptors. In words: Radio ligand binding, displacement of muscarinic antagonist 3H-Quinuclidinyl Benzilate (3H-QNB), rat cerebral cortex membranes. More on the design: species or system Hooded Lister rats. As to conditions: 0.27 nM 3H-QNB, tris pH 7.7, 37° C., 30 min.
The target in experiment [2] is muscarinic receptors. In words: Radio ligand binding, displacement of muscarinic agonist 3H-Oxotremorine-M (3H-OXO-M), rat cerebral cortex membranes. On the set-up: species or system Hooded Lister rats. As to conditions: 2 nM 3H-OXO-M, 2 mM magnesium chloride, tris pH 7.7, 37° C., 30 min.

41 molecules from US5981545A, “N-linked azabicyclic heterocycles useful for treating dementia” (Beecham Group p.l.c., priority 1989, dated 1999) can be followed below.

pIC50: −log10 of the molar value. Counter-ions that a name gives are not always drawn.

Usually pIC50 stands for the IC50 on a negative log10 scale, so that one unit is a factor of ten. A lower pIC50 goes with a large IC50. For the molecule `CCc1nnn([C@@H]2CN3CC[C@@H]2C3)n1` (relative stereo) [E23, (±) exo-3-(5-Ethyltetrazol-2-yl)-1-azabicyclo[2.2.1] heptane hydrochloride salt], the pIC50 in experiment [1] is 5.48; in experiment [2], 6.49. Turning to `Nc1nnn([C@@H]2CN3CC[C@@H]2C3)n1` (relative stereo) [E18, (±) exo-3-(5-Aminotetrazol-2-yl)-1-azabicyclo[2.2.1] heptane], the pIC50 is 5.37 in experiment [1] and 8.58 in experiment [2]. On the same counts, the results for `c1ncn(C23CCCN(CC2)C3)n1` (racemic) [E27, (±) 5-(1,2,4-Triazol-1-yl)-1-azabicyclo[3.2.1]octane dihydrochloride salt] are 5.49 and 7.92.

`Brc1ncn([C@@H]2CN3CC[C@@H]2C3)n1` (relative stereo) [E54, (±) exo-3-(3-Bromo-1,2,4-triazol-1-yl)-1-azabicyclo-[2.2.1]heptane oxalate salt]: the pIC50 in experiment [1] is 5.36; in experiment [2], 7.49. The corresponding values for `Clc1ncn(C2CN3CCC2CC3)n1` (racemic) [E48, (±) 3-(3-Chloro-1,2,4-triazol-1-yl)-1-azabicyclo[2.2.2] octane oxalate salt] are 5.05 and 6.71. In experiment [2], `Nc1ncnn1C1CN2CCC1CC2` (racemic) [E39, (±) 3-(5-amino-1,2,4-triazol-1-yl)-1-azabicyclo[2.2.2]octane dihydrochloride salt] had a negative logarithm of the IC50 (pIC50) of 4.84. On to `Clc1nnn(C23CCCN(CC2)C3)n1` (racemic) [E49, (±) 5-(5-Chlorotetrazol-2-yl)-1-azabicyclo[3.2.1]octane oxalate salt], for which the pIC50 is 6.30 in experiment [1] and 8.49 in experiment [2]. Regarding `Nc1nnn(C23CCCN(CC2)C3)n1` (racemic) [E33, (±) 5-(5-Aminotetrazol-2-yl)-1-azabicyclo[3.2.1]octane], the pIC50 in experiment [1] was 5.21; in experiment [2] it was 8.12. The corresponding values for `Cc1nnnn1[C@@H]1CN2CC[C@@H]1C2` (relative stereo) [E21, (±) exo-3-(5-Methyltetrazol-1-yl)-1-azabicyclo[2.2.1] heptane hydrochloride salt] are 3.51 and 5.18. For `Nc1nnn(C2CN3CCC2CC3)n1` (racemic) [E11, (±) 3-(5-Aminotetrazol-2-yl)-1-azabicyclo[2.2.2]octane], the pIC50 in experiment [1] was 5.19; in experiment [2], 7.42. The corresponding values for `Cc1ncn(C23CCCN(CC2)C3)n1` (racemic) [E28, (±) 5-(3-Methyl-1,2,4-triazol-1-yl)-1-azabicyclo-[3.2.1]octane dihydrochloride salt] are 5.59 and 7.77.

Consider `N#Cc1nnn(C2CN3CCC2CC3)n1` (racemic) [E46, (±) 3-(5-Cyanotetrazol-2-yl)-1-azabicyclo[2.2.2]octane oxalate salt], for which the pIC50 in experiment [1] was 5.11; in experiment [2], 5.85. As to `Cc1ncn(C2CN3CCC2CC3)n1` (racemic) [E6, (±) 3-(3-Methyl-1,2,4-triazol-1-yl)-1-azabicyclo[2.2.2] octane dihydrochloride salt], the pIC50 is 5.25 in experiment [1] and 7.17 in experiment [2]. For the molecule `Ic1nnn([C@@H]2CN3CC[C@@H]2C3)n1` (relative stereo) [E43, (±) exo-3-(5-Iodotetrazol-2-yl)-1-azabicyclo[2.2.1]heptane oxalate salt], the pIC50 was 6.48 in experiment [1] and 7.38 in experiment [2]. With `c1nnn([C@@H]2CN3CC[C@@H]2C3)n1` (relative stereo) [E19, (±) exo-3-(Tetrazol-2-yl)-1-azabicyclo[2.2.1]heptane hydrochloride salt], the pIC50 in experiment [1] was 4.65; in experiment [2] it was 7.52. On the same counts, the results for `Cc1cnn([C@@H]2CN3CC[C@@H]2C3)n1` (relative stereo) [E25, (±) exo-3-(4-Methyl-1,2,3-triazol-2-yl)-1-azabicyclo-[2.2.1]heptane hydrochloride salt] are 4.66 and 6.74. The corresponding values for `c1nnnn1C1CN2CCC1CC2` (racemic) [E16, (±) 3-(Tetrazol-1-yl)-1-azabicyclo[2.2.2]octane hydrochloride salt] are 3.96 and 5.56. Consider `c1ncn(C23CCN(CC2)C3)n1` [E51, 4-(1,2,4-Triazol-1-yl)-1-azabicyclo[2.2.1]heptane oxalate salt], for which the pIC50 in experiment [1] was 4.19; in experiment [2], 7.78. For the molecule `c1cnn(C2CN3CCC2CC3)c1` (racemic) [E2, (±) 3-(Pyrazol-1-yl)-1-azabicyclo[2.2.2]octane dihydrochloride salt], the pIC50 in experiment [1] was 4.46; in experiment [2] it was 5.90.

For the molecule `c1ncn([C@@H]2CN3CC[C@@H]2C3)n1` (relative stereo) [E9, (±) exo-3-(1,2,4-Triazol-1-yl)-1-azabicyclo[2.2.1]heptane dihydrochloride salt], the pIC50 in experiment [1] was 4.37; in experiment [2], 7.32. In the case of `Nc1nnn([C@H]2C[C@@H]3CCN(C3)C2)n1` (relative stereo) [E17, (±) exo-3-(5-Aminotetrazol-2-yl)-1-azabicyclo[3.2.1] octane hydrochloride], the pIC50 in experiment [1] was 5.57; in experiment [2], 6.77. On the same counts, the results for `Brc1nnn(C2CN3CCC2CC3)n1` (racemic) [E40, (±) 3-[5-Bromotetrazol-2-yl]-1-azabicyclo[2.2.2]octane oxalate salt] are 6.31 and 7.71.

Molecule `Nc1nnnn1C12CCCN(CC1)C2` (racemic) [E34, (±) 5-(5-aminotetrazol-1-yl)-1-azabicyclo[3.2.1]octane] had a negative-log IC50 (pIC50) in experiment [2] of 5.85. As to `Cc1nnn([C@@H]2CN3CC[C@@H]2C3)n1` (relative stereo) [E20, (±) exo-3-(5-Methyltetrazol-2-yl)-1-azabicyclo[2.2.1] heptane hydrochloride salt], the values for the pIC50 in experiment [1] and in experiment [2] were 5.52 and 8.35, respectively. Molecule `c1nnnn1C12CCCN(CC1)C2` (racemic) [E30, (±) 5-(tetrazol-1-yl)-1-azabicyclo[3.2.1]octane] gave a negative-log IC50 (pIC50) in experiment [2] of 5.85.

In the case of `c1nnn(C23CCCN(CC2)C3)n1` (stereo not shown) [E29, 5-(Tetrazol-2-yl)-1-azabicyclo[3.2.1]octane], the figures for the pIC50 in experiment [1] and in experiment [2] were 4.89 and 7.66, respectively. With `c1nnn([C@H]2C[C@@H]3CCN(C3)C2)n1` (relative stereo) [E22, (±) exo-3-(Tetrazol-2-yl)-1-azabicyclo[3.2.1]octane hydrochloride salt], the negative logarithm of the IC50 (pIC50) is 4.26 in experiment [1] and 6.82 in experiment [2]. The corresponding values for `c1ncn(C2CN3CCC2CC3)n1` (racemic) [E7, (±) 3-(1,2,4-Triazol-1-yl)-1-azabicyclo[2.2.2]octane dihydrochloride salt] are 4.36 and 6.32. On the same counts, the results for `Cc1cnn(C2CN3CCC2CC3)n1` (racemic) [E12, (±) 3-(4-Methyl-1,2,3-triazol-2-yl)-1-azabicyclo-[2.2.2]octane hydrochloride] are 5.68 and 6.59.

Take `Brc1nnn(C23CCCN(CC2)C3)n1` (racemic) [E50, (±) 5-(5-Bromotetrazol-2-yl)-1-azabicyclo[3.2.1]octane]: the pIC50 in experiment [1] was 6.39; in experiment [2], 8.19.

Regarding `Brc1nnn([C@@H]2CN3CC[C@@H]2C3)n1` (relative stereo) [E41, (±) exo-3-(5-Bromotetrazol-2-yl)-1-azabicyclo[2.2.1]heptane oxalate salt], the pIC50 in experiment [1] was 5.82; in experiment [2], 8.19. On the same counts, the results for `Cc1nnn(C23CCCN(CC2)C3)n1` (racemic) [E31, (±) 5-(5-Methyltetrazol-2-yl)-1-azabicyclo[3.2.1]octane] are 5.54 and 7.94. Consider `Nc1ncn(C23CCCN(CC2)C3)n1` (racemic) [E36, (±) 5-(3-Amino-1,2,4-triazol-1-yl)-1-azabicyclo[3.2.1]octane], for which the pIC50 in experiment [1] was 5.17; in experiment [2], 7.71. The corresponding values for `Brc1ncn(C2CN3CCC2CC3)n1` (racemic) [E47, (±) 3-(3-Bromo-1,2,4-triazol-1-yl)-1-azabicyclo[2.2.2]-octane oxalate salt] are 5.48 and 7.00.

`Cc1ncn([C@@H]2CN3CC[C@@H]2C3)n1` (relative stereo) [E8, (±) exo-3-(3-Methyl-1,2,4-triazol-1-yl)-1-azabicyclo-[2.2.1]heptane dihydrochloride salt]: the pIC50 in experiment [1] is 5.20; in experiment [2], 7.66.

Take `Clc1nnn([C@@H]2CN3CC[C@@H]2C3)n1` (relative stereo) [E42, (±) exo-3-(5-Chlorotetrazol-2-yl)-1-azabicyclo[2.2.1]heptane oxalate salt]: the pIC50 in experiment [1] was 6.15; in experiment [2] it was 8.12. `Cc1ccn(C2CN3CCC2CC3)n1` (racemic) [E1, (±) 3-(3-Methylpyrazol-1-yl)-1-azabicyclo[2.2.2]octane oxalate salt]: the pIC50 in experiment [1] is 5.30; in experiment [2], 6.43. On the same counts, the results for `Cc1nnn(C2CN3CCC2CC3)n1` (racemic) [E10, (±) 3-(5-Methyltetrazol-2-yl)-1-azabicyclo[2.2.2]octane hydrochloride salt] are 5.55 and 7.52. On the same counts, the results for `Cc1ncn(C2=CN3CCC2CC3)n1` [E5, 3-(3-Methyl-1,2,4-triazol-1-yl)-1-azabicyclo[2.2.2]oct-2-ene dihydrochloride] are 4.52 and 6.19. On the same counts, the results for `c1nnn(C2CN3CCC2CC3)n1` (racemic) [E15, (±) 3-(Tetrazol-2-yl)-1-azabicyclo[2.2.2]octane hydrochloride salt] are 4.55 and 6.62.

For `Nc1ncn(C2CN3CCC2CC3)n1` (racemic) [E38, (±) 3-(3-Amino-1,2,4-triazol-1-yl)-1-azabicyclo-[2.2.2]octane], the pIC50 in experiment [1] is 4.84; in experiment [2], 6.74.
